Reference: patent publication EP4818171A1 (Apeiron Therapeutics (Hong Kong) Ltd., priority 2024, dated 2025)
Like-named read-outs stand apart in the source and are kept apart here.

Tests used:
[1] = tested on: HCT-116 MTAP(-/-)deleted cells; assay: Inhibitory activity on proliferation of HCT-116 MTAP(-/-)deleted cells (Cell-Titer Glo)
Protocol: Only cells in the logarithmic growth phase could be used for the test. […] The cell concentration was adjusted, rendering that cells were inoculated into a 384-well plate at 40 µL per well and incubated overnight at 37°C and 5% carbon dioxide. 40 nL of the compound was added to each well to reach a final concentration of 0-10,000 nM (starting concentration 10,000 nM, 3-fold dilution, 10 points), and the cell plate with 0.1% DMSO content was incubated at 37°C and 5% carbon dioxide for 8 d. 40 µL of Cell-Titer Glo reagent was added to test cell viability.

[2] = tested on: LU99 MTAP overexpressing cells; assay: Inhibitory activity on proliferation of LU99 MTAP overexpressing cells (Cell-Titer Glo); assay type: cell-based; conditions: 6 d incubation
Protocol: Materials and cells: LU99 MTAP overexpressing cell line was purchased from Kyinno Biotechnology (China); cell culture medium and fetal bovine serum were purchased from Thermo Fisher Scientific (USA); 384-well plates were purchased from PerkinElmer (USA); Cell-Titer Glo kits were purchased from Promega (USA).
Cell culture: LU99 MTAP overexpressing cells were cultured with medium containing 10% fetal bovine serum at 37°C in 5% carbon dioxide. Only cells in the logarithmic growth phase could be used for the test.
Test of inhibitory activity on cell proliferation: The Cell-Titer Glo kit was used to test the proliferation inhibitory activity of the compounds on LU99 MTAP overexpressing cells. The cell concentration was adjusted, rendering that cells were inoculated into a 384-well plate at 40 µL per well and incubated overnight at 37°C and 5% carbon dioxide. 40 nL of the compound was added to each well to reach a final concentration of 0-10,000 nM (starting concentration 10,000 nM, 2.5-fold dilution, 10 points), and the cell plate with 0.2% DMSO content was incubated at 37°C and 5% carbon dioxide for 6 d. 40 µL of Cell-Titer Glo reagent was added to test cell viability.

[3] = tested on: LU99 MTAP(-/-)deleted cells; assay: Inhibitory activity on proliferation of LU99 MTAP(-/-)deleted cells (Cell-Titer Glo)
Protocol: Materials and cells: LU99 MTAP deleted cell line was purchased from Kyinno Biotechnology (China); cell culture medium and fetal bovine serum were purchased from Thermo Fisher Scientific (USA); 384-well plates were purchased from PerkinElmer (USA); Cell-Titer Glo kits were purchased from Promega (USA). Cell culture: LU99 MTAP(-/-)deleted cells were cultured with medium containing 10% fetal bovine serum at 37°C in 5% carbon dioxide. Only cells in the logarithmic growth phase could be used for the test.
Test of inhibitory activity on cell proliferation: The Cell-Titer Glo kit was used to test the proliferation inhibitory activity of the compounds on LU99 MTAP(-/-)deleted cells. The cell concentration was adjusted, rendering that cells were inoculated into a 384-well plate at 40 µL per well and incubated overnight at 37°C and 5% carbon dioxide. […] 40 µL of Cell-Titer Glo reagent was added to test cell viability.

HCT-116 wild-type cells = assay: Inhibitory activity on proliferation of HCT-116 wild-type cells (Cell-Titer Glo); assay type: cell-based; conditions: 8 d incubation
Protocol: Cell culture: HCT-116 wild-type cells were cultured with a RPMI-1640 medium containing 10% fetal bovine serum+1% penicillin-streptomycin at 37°C in 5% carbon dioxide. Only cells in the logarithmic growth phase could be used for the test.
Test of cell proliferation activity: Cell-Titer Glo kit was used to test the proliferation inhibitory activity of the compound on HCT-116 wild-type cells. The cell concentration was adjusted, rendering that cells were inoculated into a 384-well plate at 40 µL per well and incubated overnight at 37°C and 5% carbon dioxide. 40 nL of the compound was added to each well to reach a final concentration of 0-10,000 nM (starting concentration 10,000 nM, 2-fold dilution, 10 points), and the cell plate with 0.1% DMSO content was incubated at 37°C and 5% carbon dioxide for 8 d. 40 µL of Cell-Titer Glo reagent was added to test cell viability.

[4] = Homo sapiens, HCT-116, 192 h, read-out: IC50 (nM) HCT-116 MTAP(-/-)deleted
[5] = Homo sapiens, Lu-99, 144 h, read-out: IC50 (nM) Lu99 MTAP(-/-)Deleted, LU99 MTAP(-/-)deleted cells, 6 d incubation, Cell-Titer Glo
[6] = read-out: IC50 (nM) Lu99 MTAP(-/-)Deleted, LU99 MTAP(-/-)deleted cells, 6 d incubation, Cell-Titer Glo

Row | IC50 [1, 4] [nM] | IC50 (HCT-116 wild-type cells; Homo sapiens, HCT-116, 192 h) [nM] | Compound | IC50 ([2]; Homo sapiens, Lu-99, 144 h) [nM] | IC50 [3, 5] [nM] | also measured
1 | 9.46 | 920 | Cc1ncn2c1c(N)nc1cc(F)c(C(=O)N(C)C3COC4(CCOCC4)c4cc(C(F)(F)F)ccc43)cc12 (centres unmarked) [Example 20, 4-Amino-7-fluoro-N,3-dimethyl-N-(7-(trifluoromethyl)-2',3',5',6'-tetrahydrospiro[isochroman-1,4'-pyran]-4-yl)imidazo[1,5-a]quinoxaline-8-carboxamide] | 1070 | 20.5 | 
2 |  |  | CN(C(=O)c1ccc2nc(N)c3cncn3c2c1)[C@H]1COC2(CCC2)c2cc(C(F)(F)F)ccc21 (stereo in doubt) [Example 4, (R)-4-amino-N-methyl-N-(7'-(trifluoromethyl)spiro[cyclobutane-1,1'-isochroman]-4'-yl)imidazo[1,5-a]quinoxaline-8-carboxamide] |  |  | IC50 [2]: 742 nM; IC50 [3, 6]: 1100 nM
3 |  |  | CN(C(=O)c1ccc2nc(N)c3cncn3c2c1)[C@@H]1COC2(CCC2)c2nc(N3CCOCC3)ccc21 [Example 5, (S)-4-amino-N-methyl-N-(2'-morpholinyl-5',6'-dihydrospiro[cyclobutane-1,8'-pyrano[3,4-b]pyridine]-5'-yl)imidazo[1,5-a]quinoxaline-8-carboxamide] | 2360 | 961 | 
4 |  |  | 4-amino-N-methyl-N-(7'-(trifluoromethyl)spiro[cyclobutane-1,1'-isochroman]-4'-yl)imidazo[1,5-a]quinoxaline-8-carboxamide [Example 1] |  |  | IC50 ([1]; read-out: IC50 (nM) HCT-116 MTAP(-/-)deleted, HCT-116 MTAP(-/-)deleted cells, 8 d incubation, Cell-Titer Glo): 10 nM; IC50 [2]: 652 nM; IC50 [3, 6]: 13.2 nM; IC50 (HCT-116 wild-type cells): 959 nM
5 | 5.17 | 324 | Cn1cc(N(C(=O)c2ccc3nc(N)c4cncn4c3c2)C2COC3(CCC3)c3cc(C(F)(F)F)ccc32)cn1 (centres unmarked) [Example 17, 4-Amino-N-(1-methyl-1H-pyrazol-4-yl)-N-(7'-(trifluoromethyl)spiro[cyclobutane-1,1'-isochroman]-4'-yl)imidazo[1,5-a]quinoxaline-8-carboxamide] | 104 | 4.5 | 
6 | 5.2 | 902 | CN(C(=O)c1ccc2nc(N)c3cncn3c2c1)[C@@H]1COC2(CCOCC2)c2cc(C(F)(F)F)ccc21 [Example 100, (S)-4-amino-N-methyl-N-(7'-(trifluoromethyl)-2',3',5',6'-tetrahydrospiro[isochroman-1,4'-pyran]-4-yl)imidazo[1,5-a]quinoxaline-8-carboxamide] | 938 | 8.5 | 
7 |  |  | CN(C(=O)c1ccc2nc(N)c3cncn3c2c1)C1COC2(CCCOC2)c2cc(C(F)(F)F)ccc21 (centres unmarked) [Example 24, 4-Amino-N-methyl-N-(7-(trifluoromethyl)-5',6'-dihydro-2'H,4'H-spiro[isochroman-1,3'-pyran]-4-yl)imidazo[1,5-a]quinoxaline-8-carboxamide] | 1470 | 9.54 | 
8 | 6.5 | 2220 | CN(C(=O)c1ccc2nc(N)c3cncn3c2c1)C1COC2(CCCC2)c2cc(C(F)(F)F)ccc21 (centres unmarked) [Example 9, 4-Amino-N-methyl-N-(7'-(trifluoromethyl)spiro[cyclopentane-1,1'-isochroman]-4'-yl)imidazo[1,5-a]quinoxaline-8-carboxamide] | 1980 | 10.9 | 
9 | 5.1 | 636 | CN(C(=O)c1ccc2nc(N)c3cncn3c2c1)[C@H]1COC2(CCC2)c2cc(C(F)(F)F)ccc21 [Example 3, (R)-4-amino-N-methyl-N-(7'-(trifluoromethyl)spiro[cyclobutane-1,1'-isochroman]-4'-yl)imidazo[1,5-a]quinoxaline-8-carboxamide] | 624 |  | IC50 [3, 6]: 8.3 nM
10 |  |  | CN(C(=O)c1cc2c(cc1F)nc(N)c1cncn12)[C@@H]1COC2(CCC2)c2cc(C(F)(F)F)ccc21 [Example 15, (S)-4-amino-7-fluoro-N-methyl-N-(7'-(trifluoromethyl)spiro[cyclobutane-1,1'-isochroman]-4'-yl)imidazo[1,5-a]quinoxaline-8-carboxamide] | 425 | 7.1 | 
11 | 21.7 | 2710 | Cc1ncc2c(N)nc3cc(F)c(C(=O)N(C)C4COC5(CCOCC5)c5cc(C(F)(F)F)ccc54)cc3n12 (centres unmarked) [Example 19, 4-Amino-7-fluoro-N,1-dimethyl-N-(7-(trifluoromethyl)-2',3',5',6'-tetrahydrospiro[isochroman-1,4'-pyran]-4-yl)imidazo[1,5-a]quinoxaline-8-carboxamide] | 1390 | 31.3 | 
12 | 47.9 | > 10000 | CN(C(=O)c1ccc2nc(N)c3cncn3c2c1)[C@@H]1COC(C)(C)c2cc(N3CCOCC3)ccc21 [Example 98, (S)-4-amine-N-(1,1-dimethyl-7-morpholinoisochroman-4-yl)-N-methylimidazo[1,5-a]quinoxaline-8-carboxamide] | 8100 | 57.5 | 
13 | 403 | 9490 | CN(C(=O)c1ccc2nc(N)c3cncn3c2c1)[C@H]1COC2(CCOCC2)c2cc(C(F)(F)F)ccc21 [Example 101, (R)-4-amino-N-methyl-N-(7'-(trifluoromethyl)-2',3',5',6'-tetrahydrospiro[isochroman-1,4'-pyran]-4-yl)imidazo[1,5-a]quinoxaline-8-carboxamide] | 5640 | > 1000 | 
14 |  |  | CN(C(=O)c1cc2c(cc1F)nc(N)c1cncn12)C1COC2(CCCOC2)c2cc(C(F)(F)F)ccc21 (centres unmarked) [Example 50, 4-Amino-7-fluoro-N-methyl-N-(7-(trifluoromethyl)-5',6'-dihydro-2'H,4'H-spiro[isochroman-1,3'-pyran]-4-yl)imidazo[1,5-a]quinoxaline-8-carboxamide] | 591 | 7.13 | 
15 | 5.1 | 636 | CN(C(=O)c1ccc2nc(N)c3cncn3c2c1)C1COC2(CCC2)c2cc(C(F)(F)F)ccc21 (centres unmarked) [Example 7, 4-Amino-N-methyl-N-(7'-(trifluoromethyl)spiro[cyclobutane-1,1'-isochroman]-4'-yl)imidazo[1,5-a]quinoxaline-8-carboxamide] | 624 | 8.3 | 
16 |  | > 20000 | CN(C(=O)c1ccc2nc(N)c3cncn3c2c1)[C@@H]1COC2(CCC2)c2cc(N3CCNCC3)ncc21 [Example 21, (S)-4-amino-N-methyl-N-(7'-(piperazin-1-yl)-3'-,4'-dihydrospiro[cyclobutane-1,1'-pyrano[4,3-c]pyridine]-4'-yl)imidazo[1,5-a]quinoxaline-8-carboxamide] | 12500 | > 1000 | IC50 ([1]; Homo sapiens, HCT-116, 192 h, read-out: IC50 (nM) HCT-116 MTAP(-/-)deleted, HCT-116 MTAP(-/-)deleted cells, 8 d incubation, Cell-Titer Glo): > 1000 nM
17 |  |  | CN(C(=O)c1ccc2nc(N)c3cncn3c2c1)C1COC(C)(C)c2c1ccc1c2OCO1 (centres unmarked) [Example 18] | 756 | 99.6 | 
18 |  |  | CN(C(=O)c1ccc2nc(N)c3cncn3c2c1)C1COC(C)(C)c2cc(C(F)(F)F)ncc21 (centres unmarked) [Example 99, 4-Amino-N-(1,1-dimethyl-7-(trifluoromethyl)-3,4-dihydro-1H-pyrano[4,3-c]pyridin-4-yl)-N-methylimidazo[1,5-a]quinoxaline-8-carboxamide] | 2970 | 152 | 

Row | Compound | IC50 [1, 4] [nM] | IC50 (HCT-116 wild-type cells; Homo sapiens, HCT-116, 192 h) [nM] | IC50 ([2]; Homo sapiens, Lu-99, 144 h) [nM] | IC50 [3, 5] [nM] | also measured
19 | CN(C(=O)c1ccc2nc(N)c3cncn3c2c1)[C@@H]1COC2(CCC2)c2cc(N3CC[Si](C)(C)CC3)ncc21 [Example 34] | 40 |  | 1430 |  | IC50 ([3]; Homo sapiens, Lu-99, 144 h, read-out: IC50 (nM) Lu99 MTAP(-/-)Deleted): 41.5 nM; IC50 (HCT-116 wild-type cells; Homo sapiens, 192 h): 5250 nM
